Assay [1] deals with HEK293 cells. The experiment in a line: CellTiter-Glo Luminescent Cell Viability Assay in HEK293 cells. The conditions noted are these: Homo sapiens, 168 h, 7 days incubation, 3 μM to 0.00015 μM. The assay is classed as cell-based. The source says:
CellTiter-Glo™ Assay in HEK293 Cells
The CellTiter-Glo™ Luminescent Cell Viability Assay (Promega) is a homogeneous method of determining the number of viable cells in culture based on quantitation of the ATP present, which signals the presence of metabolically active cells.
HEK293 cells (human embryonic kidney cell line transformed by Adenovirus 5 fragments, ATCC-No. CRL 1573) were cultivated in Dulbecco's Modified Eagle Medium (DMEM) with Glutamax™ (Invitrogen, 31966-021), 5% Fetal Calf Serum (FCS, Sigma Cat-No. F4135 (FBS)), 100 Units/ml penicillin/100 μg/ml streptomycin (=Pen/Strep from Invitrogen Cat. No. 15140)., For the assay the cells were seeded in 384 well plates, 5000 cells per well, in the same medium. The next day the test compounds were added in various concentrations ranging from 3 μM to 0.00015 μM (10 concentrations, 1:3 diluted). After 7 days the CellTiter-Glo™ assay was done according to the instructions of the manufacturer (CellTiter-Glo™ Luminescent Cell Viability Assay, from Promega). In brief: the cell-plate was equilibrated to room temperature for approximately 30 minutes and than the CellTiter-Glo™ reagent was added. The contents were carefully mixed for 15 minutes to induce cell lysis. After 45 minutes the luminescent signal was measured in Victor 2, (scanning multiwell spectrophotometer, Wallac).
Medium: Dulbecco's Modified Eagle Medium (DMEM) with Glutamax™ (Invitrogen, 31966-021), 5% Fetal Calf Serum (FCS, Sigma Cat-No. F4135 (FBS)), Pen/Strep (Invitrogen Cat. No. 15140).
Incubate 24 h at 37° C., 5% CO2
2nd Day: Induction (Substance Testing):
In general the dilution steeps are 1:3 • a) Add 8 μl of 10 mM stock solution of compound to 72 μl DMSO • b) dilute 9×1:3 (always 30 μl to 60 μl DMSO) in this DMSO dilution row (results in 10 wells with concentrations from 1000 μM to 0.06 μM) • c) dilute each concentration 1:4.8 (10 μl compound dilution to 38 μl medium) • d) dilute each concentration 1:10 (10 μl compound dilution to 90 μl medium) • e) add 10 μl of every concentration to 60 μl medium in the cell plate • resulting in final concentration of DMSO: 0.3% in every well • and resulting in final concentration of compounds from 3 μM to 0.00015 μM • Incubate 168 h (7 days) at 37° C., 5% CO2
Analysis: • Add 30 μl CellTiter-Glo™ Reagent/well, • shake 15 minutes at room temperature • incubate further 45 minutes at room temperature without shaking.
Measurement: • Victor 2 scanning multiwell spectrophotometer (Wallac), Luminescence mode • Determine IC50 with XL-fit (XLfit software (ID Business Solution Ltd., Guilford, Surrey, UK)).
A general note: Cellular ATP, detected with luciferase, serves as a proxy for viable cell number.

The test system of assay [2] is A549 cells. The assay is described as follows: MTT assay in A549 cells. The conditions noted are these: Homo sapiens, 120 h, 5 days incubation, 3 μM to 0.15 nM. The assay is classed as cell-based, human. As to the method:
To further show the activity of the compounds according to this invention, their effects on a […] was evaluated using a standard MTT-assay. MTT (3-(4,5-dimethylthiazol-2-yl)-2,5-diphenyl tetrazolium bromide) is widely used for the quantitative determination of cytotoxic effects or in vitro chemosensitivity of tumor cells. The assay is based on the cleavage of the yellow tetrazolium salt (MTT) to purple formazan crystals by metabolic active cells. For details, see Rubinstein, L. V., et al., J. Natl. Cancer Inst. 82 (1990) 1113-1118.
A549 cells (human lung carcinoma cell line ATTC-No. CCL-185) were cultivated in RPMI (Roswell Park Memorial Institute) 1640 medium with GlutaMAX™ I (Invitrogen, Cat-No. 61870-010), 2,5% Fetal Calf Serum (FCS, Sigma Cat-No. F4135 (FBS)); 100 Units/ml penicillin/100 μg/ml streptomycin (=Pen/Strep from Invitrogen Cat. No. 15140). For the assay the cells were seeded in 384 well plates, 900 cells per well, in the same medium. The next day compounds (dissolved 10 mM in dimethylsulfoxide (DMSO)) were added in various concentrations ranging from 3 μM to 0.15 nM (10 concentrations, 1:3 diluted). After 5 days MTT assay was done mainly according to the instructions of the manufacturer (Cell proliferation kit I, MTT, from Roche Molecular Biochemicals). In brief: MTT labeling reagent (3-(4,5-dimethylthiazol-2-yl)-2,5-diphenyltetrazolium bromide (MTT)) was added to a final concentration of 0.5 mg/ml, added and incubated for 4 hrs at 37° C., 5% CO2. During this incubation time purple formazan crystals are formed. After addition of the solubilization solution (20% Sodium Dodecyl Sulfate (SDS) in 0.02 M HCl) the plates were incubated overnight at 37° C., 5% CO2. After careful mixing plates were measured in Victor 2 scanning multiwell spectrophotometer (Wallac) at 550 nm.
A decrease in number of living cells results in a decrease in the total metabolic activity in the sample. The decrease directly correlates to the amount of purple color resulting from the solubilization of the purple formazan crystals.
• A549: 900 cells in 60 μl per well of 384 well plate (Greiner) • Medium: RPMI 1640, 2.5% FCS, glutamine, Pen/Strep. • Incubate 1 day at 37° C.
Induction: • Dilution of compound in DMSO: 3 μl 10 mM+27 μl DMSO, dilute 1:3 • Add 2 μl of compound dilution row to 95 μl of medium • Add 10 μl of compound dilution to 60 μl medium in test plate resulting in 0.3% DMSO per well • Incubate 120 h (5 days) at 37° C., 5% CO2
Analysis: • Add 7 μl MTT (5 mg/7 ml/well), incubate 4 h at 37° C. • Add 30 μl lysis buffer (20% SDS, 0.04 N HCl) per well • Incubate overnight at 37° C.
Measurement: • Victor 2 scanning multiwell spectrophotometer (Wallac) at 550 nm
Determination of IC50 was done using XL-fit (XLfit software (ID Business Solution Ltd., Guilford, Surrey, UK)).
On the technique in general: Tetrazolium dyes change colour on reduction, which living cells bring about.

Molecules are shown by their SMILES.

In general, IC50 refers to the concentration at which inhibition is half-maximal. Read a high IC50 as lower potency. In assay [1], `CC(C)([PH2]=O)n1ncc(CCCCc2ccc(OCc3coc(/C=C/c4ccc(OC(F)(F)F)cc4)n3)cc2)n1` [Example 1.18, 2-(Dimethyl-phosphinoylmethyl)-4-[4-(4-{2-[(E)-2-(4-trifluoromethoxy-phenyl)-vinyl]-oxazol-4-ylmethoxy}-phenyl)-butyl]-2H-[1,2,3]triazole] showed an IC50 of 5 to 250 nM.

In the case of `N#CCn1ncc(CCCCc2ccc(OCc3coc(/C=C/c4ccc(OC(F)(F)F)cc4)n3)cc2)n1` [Example 1.14, {4-[4-(4-{2-[(E)-2-(4-Trifluoromethoxy-phenyl)-vinyl]-oxazol-4-ylmethoxy}-phenyl)-butyl]-[1,2,3]triazol-2-yl}-acetonitrile], the IC50 in assay [1] fell in the range of 250 to 1500 nM.

In assay [1], `CC(C)([PH2]=O)n1cc(CCCCc2ccc(OCc3coc(/C=C/c4ccc(OC(F)(F)F)cc4)n3)cc2)nn1` [Example 1.17, 1-(Dimethyl-phosphinoylmethyl)-4-[4-(4-{2-[(E)-2-(4-trifluoromethoxy-phenyl)-vinyl]-oxazol-4-ylmethoxy}-phenyl)-butyl]-1H-[1,2,3]triazole] gave an IC50 of 250 to 1500 nM.

In the case of `Cn1nnc(CCCCc2ccc(OCc3coc(/C=C/c4ccc(OC(F)(F)F)cc4)n3)cc2)n1` [Example 2.3, Methyl-5-[4-(4-{2-[(E)-2-(4-trifluoromethoxy-phenyl)-vinyl]-oxazol-4-ylmethoxy}-phenyl)-butyl]-2H-tetrazole], the IC50 in assay [2] was in the range of 5 to 200 nM.

With `FC(F)(F)Oc1ccc(/C=C/c2nc(COc3ccc(CCCCc4nn[nH]n4)cc3)co2)cc1` [Example 2.1, 5-[4-(4-{2-[(E)-2-(4-Trifluoromethoxy-phenyl)-vinyl]-oxazol-4-ylmethoxy}-phenyl)-butyl]-2H-tetrazole], the figures for the IC50 in assay [1] and in assay [2] were 250 to 1500 nM and 200 to 1000 nM, respectively.

Consider `OCCn1cc(CCCCc2ccc(OCc3coc(/C=C/c4ccc(OC(F)(F)F)cc4)n3)cc2)nn1` [Example 1.6, 2-{4-[4-(4-{2-[(E)-2-(4-Trifluoromethoxy-phenyl)-vinyl]-oxazol-4-ylmethoxy}-phenyl)-butyl]-[1,2,3]triazol-1-yl}-ethanol], for which it took 166 nM to reach half-maximal inhibition in assay [1] (IC50).

Consider `Cn1cc(CCCCc2ccc(OCc3coc(/C=C/c4ccc(OC(F)(F)F)cc4)n3)cc2)nn1` [Example 1.4, 1-Methyl-4-[4-(4-{2-[(E)-2-(4-trifluoromethoxy-phenyl)-vinyl]-oxazol-4-ylmethoxy}-phenyl)-butyl]-1H-[1,2,3]triazole], for which the IC50 in assay [1] is 5 to 250 nM; in assay [2], 5 to 200 nM.

For the molecule `FC(F)(F)Oc1ccc(/C=C/c2nc(COc3ccc(CCCCc4cnn(CCN5CCOCC5)n4)cc3)co2)cc1` [Example 1.19, 4-(2-{4-[4-(4-{2-[(E)-2-(4-Trifluoromethoxy-phenyl)-vinyl]-oxazol-4-ylmethoxy}-phenyl)-butyl]-[1,2,3]triazol-2-yl}-ethyl)-morpholine], the IC50 in assay [1] lay in the range of 5 to 250 nM.

In turn, `Cn1ncc(CCCCc2ccc(OCc3coc(/C=C/c4ccc(OC(F)(F)F)cc4)n3)cc2)n1` [Example 1.3, 2-Methyl-4-[4-(4-{2-[(E)-2-(4-trifluoromethoxy-phenyl)-vinyl]-oxazol-4-ylmethoxy}-phenyl)-butyl]-2H-[1,2,3]triazole] displayed an IC50 in assay [2] of 5 to 200 nM.

As to `FC(F)(F)Oc1ccc(/C=C/c2nc(COc3ccc(CCCCc4c[nH]nn4)cc3)co2)cc1` [Example 1.1, 4-[4-(4-{2-[(E)-2-(4-Trifluoromethoxy-phenyl)-vinyl]-oxazol-4-ylmethoxy}-phenyl)-butyl]-1H-[1,2,3]triazole], the results for the IC50 in assay [1] and in assay [2] were 128 nM and 200 to 1000 nM, respectively.

With `OCCn1nnc(CCCCc2ccc(OCc3coc(C=Cc4ccc(OC(F)(F)F)cc4)n3)cc2)n1` [Example 2.5, 2-{5-[4-(4-{2-[2-(4-Trifluoromethoxy-phenyl)-vinyl]-oxazol-4-ylmethoxy}-phenyl)-butyl]-tetrazol-2-yl}-ethanol], in assay [2], the IC50 lay in the range of 5 to 200 nM.

As for `Cn1nnnc1CCCCc1ccc(OCc2coc(/C=C/c3ccc(OC(F)(F)F)cc3)n2)cc1` [Example 2.2, Methyl-5-[4-(4-{2-[(E)-2-(4-trifluoromethoxy-phenyl)-vinyl]-oxazol-4-ylmethoxy}-phenyl)-butyl]-1H-tetrazole], the IC50 in assay [1] is 5 to 250 nM; in assay [2] it was 17 nM.

Regarding `OCCn1nncc1CCCCc1ccc(OCc2coc(/C=C/c3ccc(OC(F)(F)F)cc3)n2)cc1` [Example 1.7, 2-{5-[4-(4-{2-[(E)-2-(4-Trifluoromethoxy-phenyl)-vinyl]-oxazol-4-ylmethoxy}-phenyl)-butyl]-[1,2,3]triazol-1-yl}-ethanol], the IC50 in assay [1] lay within 5 to 250 nM.

With `OCCn1nnnc1CCCCc1ccc(OCc2coc(C=Cc3ccc(OC(F)(F)F)cc3)n2)cc1` [Example 2.4, 2-{5-[4-(4-{2-[2-(4-Trifluoromethoxy-phenyl)-vinyl]-oxazol-4-ylmethoxy}-phenyl)-butyl]-tetrazol-1-yl}-ethanol], the figures for the IC50 in assay [1] and in assay [2] were 250 to 1500 nM and 200 to 1000 nM, respectively.

Consider `N#CCn1nncc1CCCCc1ccc(OCc2coc(/C=C/c3ccc(OC(F)(F)F)cc3)n2)cc1` [Example 1.16, {5-[4-(4-{2-[(E)-2-(4-Trifluoromethoxy-phenyl)-vinyl]-oxazol-4-ylmethoxy}-phenyl)-butyl]-[1,2,3]triazol-1-yl}-acetonitrile], for which, in assay [1], the IC50 was 250 to 1500 nM.

The values above are taken from patent US20060069095A1, “Azole derivatives” (priority 2004, published 2006).
